Source: PMC6746272, “Towards discovery of novel scaffold with potent antiangiogenic activity; design, synthesis of pyridazine based compounds, impact of hinge interaction, and accessibility of their bioactive conformation on VEGFR-2 activities” (Journal of Enzyme Inhibition and Medicinal Chemistry, 2019)
Like-named read-outs stand apart in the source and are kept apart here. One block for each molecule: values may come before it.

Experiments:
VEGFR1 = system: VEGFR1; set-up: method as in PMID 23123015, PMID 23305239; conditions: read-out: inhibits VEGFR1; cited from earlier work
VEGFR2 = system: VEGFR2; set-up: method as in PMID 23123015, PMID 23305239; conditions: read-out: inhibits VEGFR2; cited from earlier work
VEGFR3 = system: VEGFR3; set-up: method as in PMID 23123015, PMID 23305239; conditions: read-out: inhibits VEGFR3; cited from earlier work
PDGFRα = system: PDGFRα; set-up: method as in PMID 23123015, PMID 23305239; conditions: read-out: inhibits PDGFRα; cited from earlier work
PDGFRβ = system: PDGFRβ; set-up: method as in PMID 23123015, PMID 23305239; conditions: read-out: inhibits PDGFRβ; cited from earlier work
VEGFR-2 = target: T1, VEGFR-2 (Homo sapiens, UniProt P35968); experiment: VEGFR-2 kinase inhibition assay (Alpha Screen, phosphotyrosine antibody); format: biochemical; conditions: for inhibition at 10 µM: read-out: VEGFR-2% inhibition
T1 construct: purchased Millipore, United Kingdom
Experimental: The kinase activity of VEGFR-2 was measured by use of a phosphotyrosine antibody with the
Alpha Screen system (PerkinElmer, United States) according to manufacturer’s instructions. Enzyme reactions were performed in 50 mM Tris–HCl pH 7.5, 5 mM MnCl2, 5 mM MgCl2, 0.01% Tween-20 and 2 mM DTT, containing 10 μM ATP, 0.1 μg/mL biotinylated poly-GluTyr (4:1), and 0.1 nM of VEGFR-2 (Millipore, United Kingdom). Prior to catalytic initiation with ATP, the tested compounds at final concentrations ranging from 0 to 100 μg/mL and enzyme were incubated for 5 min at room temperature. […] Plate was incubated in the dark overnight and then read by ELISA Reader (PerkinElmer, United States). Wells containing the substrate and the enzyme without compounds were used as reaction control. Wells containing biotinylated poly-GluTyr (4:1) and enzyme without ATP were used as basal control. Percent inhibition was calculated by the comparison of compounds treated to control incubations.

HUVEC cell line = experiment: In vitro HUVEC anti-proliferative assay (alamar Blue); format: cell-based, human; conditions: for HUVEC proliferation (%): 72 h, Mean ± SD, n = 3
Experimental: Compounds 8c, 8f, 15, 18b, and 18c were selected to be tested for their ability to in vitro inhibit VEGF-induced HUVEC cell line proliferation, using doxorubicin as a control.
The assay was performed at single dose concentration of 10 µM, where HUVEC, human (Life Technologies # C-003-5C) served as the cells’ source, in Medium 200 (Life Technologies # M-200–500), with large vessel endothelial supplement (LVES) (Life Technologies # A14608-01) and Pen-strep (Hyclone # SV30010). Alamar Blue (Life Technologies # DAL1025) was used as the fluorescent reagent.
HUVEC cells were cultured in Medium 200 with 2% LVES and 1% Pen-strep. To perform the proliferation assay, HUVEC cells were seeded at 5000 cells/50 μl/well in a 96-well black clear bottom tissue culture plate. Cells were incubated at 37 °C and 5% CO2 overnight to allow them to recover and reattach. Next day cells were treated with test compounds for 72 h. After treatment, cell proliferation was measured by Fluorescent quantitation of alamar Blue reagent. The alamar Blue assay incorporates a fluorometric/colorimetric growth indicator based on detection of metabolic activity. Specifically, resazurin, the active ingredient in the alamar Blue reagent, is blue in colour and virtually non-fluorescent. Upon entering cells, resazurin is reduced to resorufin, a compound that is red in colour and highly fluorescent. Continued cell growth maintains a reduced environment, therefore increasing the overall fluorescence and colour of the media surrounding cells. […] To perform the alamar Blue assay, […] of alamar Blue reagent was added to each well and the plate was incubated at 37 °C for an additional 2 h. Fluorescence intensity was measured at an excitation of 530 nm and an emission of 590 nm using a BioTek SynergyTM 2 microplate reader.
Cell proliferation assays were performed in triplicate at each concentration. The fluorescent intensity data were analysed using the computer software, Graphpad Prism. In the absence of the compound, the fluorescent intensity (Ft) in each data set was defined as 100%. In the absence of cells, the fluorescent intensity (Fb) in each data set was defined as 0%. The percent cell in the presence of each compound was calculated according to the following equation: % Cell = (F – Fb)/(Ft – Fb), where F = the fluorescent intensity in the presence of the compound, Fb = the fluorescent intensity in the absence of cells, and Ft = the fluorescent intensity in the absence of the compound.

NCI 56 cell line panel = experiment: NCI primary anticancer assay, mean over panel (SRB); format: cell-based, human; conditions: 10–5 M
Experimental: The selected compounds were evaluated at primary anticancer assay against a panel of 56 cancer lines at concentration 10–5 M. The human tumour cell lines were derived from nine different cancer types: leukaemia, melanoma, lung, colon, CNS, ovarian, renal, prostate, and breast cancers.
A 48 h drug exposure protocol was used and sulforhodamine B (SRB) protein assay was applied to estimate the cell viability and growth. The mean percentages GI (GI%) of the tested compounds over the full panel of cell lines are illustrated in Figure 4.
The cytotoxicity assays were performed at NCI, Bethesda, United States (against 56 cell lines). […]
Experimental drugs were solubilised in dimethyl sulfoxide at 400-fold the desired final maximum test concentration and stored frozen prior to use. […] Bound stain was subsequently solubilised with 10 mM trizma base, and the absorbance was read on an automated plate reader at a wavelength of 515 nm. […] Using the seven absorbance measurements [time zero (Tz), control growth (C), and test growth in the presence of drug at the five concentration levels (Ti)], the percentage growth was calculated at each of the drug concentration levels. Percentage GI was calculated as: [(Ti – Tz)/(C – Tz)] × 100 for concentrations for which Ti ≥ Tz [(Ti – Tz)/Tz] × 100 for concentrations for which Ti < Tz.

[1] = single concentration of 10 µM, Mean ± SD, n = 3
[2] = 5 concentrations 1 nM - 10 µM, Mean ± SD, n = 3, read-out: VEGFR-2 IC50

T1 sequence (P35968 20-1356): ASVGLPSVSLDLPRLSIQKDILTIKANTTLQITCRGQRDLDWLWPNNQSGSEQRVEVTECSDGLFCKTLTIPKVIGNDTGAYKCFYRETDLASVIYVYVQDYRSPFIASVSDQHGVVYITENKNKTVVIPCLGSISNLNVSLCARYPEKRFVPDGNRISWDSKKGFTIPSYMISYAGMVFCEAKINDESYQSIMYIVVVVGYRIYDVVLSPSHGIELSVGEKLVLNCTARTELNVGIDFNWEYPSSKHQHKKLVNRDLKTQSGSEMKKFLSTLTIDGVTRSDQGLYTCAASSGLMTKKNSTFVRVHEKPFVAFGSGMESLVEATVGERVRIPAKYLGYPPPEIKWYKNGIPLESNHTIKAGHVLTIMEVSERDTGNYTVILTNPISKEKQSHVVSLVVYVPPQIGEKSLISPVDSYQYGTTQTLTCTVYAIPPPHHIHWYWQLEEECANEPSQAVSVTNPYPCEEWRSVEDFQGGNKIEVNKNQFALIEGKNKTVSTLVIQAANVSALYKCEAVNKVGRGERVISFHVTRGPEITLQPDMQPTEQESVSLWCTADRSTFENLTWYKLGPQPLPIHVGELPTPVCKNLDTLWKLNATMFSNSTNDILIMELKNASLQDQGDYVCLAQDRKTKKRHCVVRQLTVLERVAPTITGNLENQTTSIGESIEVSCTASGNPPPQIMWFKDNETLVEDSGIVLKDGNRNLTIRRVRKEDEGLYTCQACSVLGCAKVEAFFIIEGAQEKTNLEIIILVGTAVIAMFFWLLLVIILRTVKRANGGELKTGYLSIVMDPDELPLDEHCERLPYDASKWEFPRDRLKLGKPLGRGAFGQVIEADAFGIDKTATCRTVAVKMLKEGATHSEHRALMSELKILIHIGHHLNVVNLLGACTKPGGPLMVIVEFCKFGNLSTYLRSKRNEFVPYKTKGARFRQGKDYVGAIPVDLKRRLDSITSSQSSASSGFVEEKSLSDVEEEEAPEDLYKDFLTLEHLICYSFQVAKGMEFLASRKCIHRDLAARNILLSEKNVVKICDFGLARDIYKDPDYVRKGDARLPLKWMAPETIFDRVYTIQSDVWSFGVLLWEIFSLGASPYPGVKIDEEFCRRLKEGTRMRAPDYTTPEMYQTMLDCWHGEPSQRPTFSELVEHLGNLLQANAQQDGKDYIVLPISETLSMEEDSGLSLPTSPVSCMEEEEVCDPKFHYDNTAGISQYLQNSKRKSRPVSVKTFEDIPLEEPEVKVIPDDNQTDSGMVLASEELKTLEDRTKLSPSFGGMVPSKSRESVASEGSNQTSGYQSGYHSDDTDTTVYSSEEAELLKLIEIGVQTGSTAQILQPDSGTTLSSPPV

Molecule: Cc1cc(C(=O)Nc2cc(Oc3ccc4nc(NC(=O)C5CC5)cn4n3)ccc2C)n(C)n1 [TAK-593]
IC50 (VEGFR1): 3.2 nM
IC50 (VEGFR2): 0.95 nM
IC50 (VEGFR3): 1.1 nM
IC50 (PDGFRα): 4.3 nM
IC50 (PDGFRβ): 13 nM

Molecule: 1-[3-Methoxyphenyl)-3–(6-morpholino-[1, 2, 4]triazolo[4,3-b]pyridazin-3-yl]urea [Compound 5c]
VEGFR-2% inhibition (VEGFR-2; [1]): 13.10 ± 1.71%

Molecule: CN[C@@H]1C[C@H]2O[C@@](C)([C@@H]1OC)n1c3ccccc3c3c4c(c5c6ccccc6n2c5c31)C(=O)NC4 [Strausporine, staurosporine, reference compound]
inhibition at 10 µM (VEGFR-2): 90.5 ± 4.53%

Molecule: O=C(Nc1ccc(Cl)c(Cl)c1)Nc1nnc2ccc(Cl)nn12 [Compound 3]
inhibition at 10 µM (VEGFR-2; [1]): 3.06 ± 0.45%
melting point: 173 to 175 °C

Molecule: O=C(Nc1ccc(Oc2ccc(=O)[nH]n2)cc1)Nc1ccc(Cl)c(C(F)(F)F)c1 [Compound 18b, 1–(4-Chloro-3-(trifluoromethyl)phenyl)-3–(4-((6-oxo-1,6-dihydropyridazin-3-yl)oxy)phenyl)urea]
IC50 (VEGFR-2; [2]): 60.7 ± 0.03 nM
anti-proliferative activity against HUVEC (in words) (HUVEC cell line; 10 μM): potent anti-proliferative activity
HUVEC proliferation (%) (HUVEC cell line; 10 µM): 2.13 ± 0.425%
inhibitory activity against most of the test cell lines (in words) (NCI 56 cell line panel): weak inhibitory activity

Molecule: 1-[4-Chloro-3-(trifluoromethyl)phenyl)-3–(6-morpholino-[1, 2, 4]triazolo[4,3-b]pyridazin-3-yl]urea [Compound 5b]
VEGFR-2% inhibition (VEGFR-2; [1]): 7.07 ± 1.11%

Molecule: 1-[3,4-Dichlorophenyl)-3–(6-morpholino-[1, 2, 4]triazolo[4,3-b]pyridazin-3-yl]urea [Compound 5a]
VEGFR-2% inhibition (VEGFR-2; [1]): 5.07 ± 0.61%

More lines, main results first:

IC50 (VEGFR-2; [2]): 1300 ± 140 nM
Molecule: O=C(Nc1ccc(-c2ccc(=O)[nH]n2)cc1)Nc1ccc(Cl)c(C(F)(F)F)c1 [Compound 8c]
HUVEC proliferation (%) (HUVEC cell line; 10 µM): 14.75 ± 0.059%

VEGFR-2% inhibition (VEGFR-2; [1]): 11.93 ± 2.25%
Molecule: 1-[4-((6-Chloropyridazin-3-yl)amino)phenyl)-3–(3,4-dichlorophenyl]urea [Compound 11d]

VEGFR-2% inhibition (VEGFR-2; [1]): 27.03 ± 3.29%
Molecule: 1-[4-Chloro-3-(trifluoromethyl)phenyl)-3–(3-(6-oxo-1,6-dihydropyridazin-3-yl)phenyl]urea [Compound 8e]

IC50 (VEGFR-2; [2]): 1400 ± 120 nM
IC50 (VEGFR-2; unit given as nm, read-out: VEGFR-2 IC50 (nm)): 1410 nM
Molecule: COc1ccc(Nc2ccc(NC(=O)Nc3ccc(Cl)c(C(F)(F)F)c3)cc2)nn1 [Compound 15, 1–(4-Chloro-3-(trifluoromethyl)phenyl)-3–(4-((6-methoxypyridazin-3-yl)amino)phenyl) urea]
HUVEC proliferation (%) (HUVEC cell line; 10 µM): 64.50 ± 2.017%
inhibition at 10 µM (HUVEC cell line; Homo sapiens, HUVEC, 10 µM, read-out: growth inhibition (GI) percent against HUVEC cell line): 35.5%
